From ChEMBL document CHEMBL5608182, “Synthesis and evaluation of neuroactive steroids with novel pharmacophore at C-21 let identify a compound with advantageous PK profile and higher EC50 and Emax as PAM on GABAA receptor” (Eur J Med Chem, 2024)

How the values were obtained:
[1] = Metabolic stability in human liver microsomes assessed as intrinsic clearance at 1 uM preincubated for 10 mins followed by NADPH addition by LC-MS analysis; format: ADME, Microsome; details: read-out: CLH
[2] = Metabolic stability in human liver microsomes assessed as compound remaining at 1 uM preincubated for 10 mins followed by NADPH addition by LC-MS analysis; format: ADME, Microsome; details: read-out: Stability
[3] = Acid dissociation constant, pKa of the compound; format: physicochemical
Cytochrome P450 2B6 = biological target: T1, Cytochrome P450 2B6 (Homo sapiens, UniProt P20813); experiment: Inhibition of CYP2B6 (unknown origin); format: ADME
T1 sequence (P20813 whole entry): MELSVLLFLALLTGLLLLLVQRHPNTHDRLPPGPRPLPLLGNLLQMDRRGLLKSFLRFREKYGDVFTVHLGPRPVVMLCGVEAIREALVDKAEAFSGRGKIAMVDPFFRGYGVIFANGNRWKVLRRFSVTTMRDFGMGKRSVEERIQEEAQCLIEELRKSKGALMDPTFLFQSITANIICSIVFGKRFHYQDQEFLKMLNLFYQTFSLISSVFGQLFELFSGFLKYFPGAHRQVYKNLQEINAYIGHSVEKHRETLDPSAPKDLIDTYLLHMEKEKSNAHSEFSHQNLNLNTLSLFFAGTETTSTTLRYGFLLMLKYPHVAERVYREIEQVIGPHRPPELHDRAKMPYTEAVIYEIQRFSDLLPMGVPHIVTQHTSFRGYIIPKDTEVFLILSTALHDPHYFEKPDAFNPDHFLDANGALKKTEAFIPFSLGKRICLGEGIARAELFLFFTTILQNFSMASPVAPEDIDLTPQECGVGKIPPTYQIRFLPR

Cytochrome P450 2D6 = Cytochrome P450 2D6 (Homo sapiens, UniProt P10635); experiment: Inhibition of CYP2D6 (unknown origin); format: ADME
Chain of Cytochrome P450 2D6 (P10635 whole entry): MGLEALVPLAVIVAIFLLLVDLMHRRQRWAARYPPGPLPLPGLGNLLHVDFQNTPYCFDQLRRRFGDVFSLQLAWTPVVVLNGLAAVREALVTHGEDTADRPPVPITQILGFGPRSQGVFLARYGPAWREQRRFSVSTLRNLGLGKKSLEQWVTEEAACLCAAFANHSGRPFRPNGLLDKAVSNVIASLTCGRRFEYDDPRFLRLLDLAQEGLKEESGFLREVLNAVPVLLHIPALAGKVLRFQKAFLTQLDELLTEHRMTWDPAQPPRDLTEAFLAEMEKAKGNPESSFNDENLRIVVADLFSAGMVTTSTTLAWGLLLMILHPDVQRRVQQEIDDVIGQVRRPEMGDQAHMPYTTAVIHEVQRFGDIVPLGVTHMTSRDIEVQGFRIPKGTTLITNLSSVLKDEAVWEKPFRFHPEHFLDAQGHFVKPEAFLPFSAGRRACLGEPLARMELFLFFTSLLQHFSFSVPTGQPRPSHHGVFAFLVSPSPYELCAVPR

Cytochrome P450 3A4 = Cytochrome P450 3A4 (Homo sapiens, UniProt P08684); experiment: Inhibition of CYP3A4 (unknown origin); format: ADME
Chain of Cytochrome P450 3A4 (P08684 whole entry): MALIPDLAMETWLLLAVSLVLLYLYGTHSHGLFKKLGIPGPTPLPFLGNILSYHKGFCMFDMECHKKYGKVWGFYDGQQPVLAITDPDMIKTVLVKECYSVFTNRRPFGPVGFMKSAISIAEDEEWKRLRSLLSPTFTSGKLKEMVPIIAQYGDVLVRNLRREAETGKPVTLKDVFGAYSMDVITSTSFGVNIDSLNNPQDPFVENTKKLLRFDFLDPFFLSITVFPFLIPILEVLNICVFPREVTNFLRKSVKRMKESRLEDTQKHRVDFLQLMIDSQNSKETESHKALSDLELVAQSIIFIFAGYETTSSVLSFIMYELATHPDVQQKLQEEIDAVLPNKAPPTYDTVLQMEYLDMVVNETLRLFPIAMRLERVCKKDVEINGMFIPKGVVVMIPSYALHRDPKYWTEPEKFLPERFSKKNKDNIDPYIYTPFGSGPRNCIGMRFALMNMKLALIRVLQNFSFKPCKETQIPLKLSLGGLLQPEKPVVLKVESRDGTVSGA

[4] = Half life in male Sprague-Dawley rat at 6.1 micromol/kg, iv administered as single dose and measured upto 24 hrs by LC-MS/MS analysis; format: ADME, organism-based; details: in vivo, dose 6.1 µmol/kg
[5] = AUClast in male Sprague-Dawley rat at 6.1 micromol/kg, iv administered as single dose and measured upto 24 hrs by LC-MS/MS analysis; format: ADME, organism-based; details: in vivo, dose 6.1 µmol/kg
[6] = MRTlast in male Sprague-Dawley rat at 6.1 micromol/kg, iv administered as single dose and measured upto 24 hrs by LC-MS/MS analysis; format: ADME, organism-based; details: in vivo, dose 6.1 µmol/kg
[7] = Apparent volume of distribution in male Sprague-Dawley rat at 24.4 micromol/kg, IG administered as single dose and measured upto 24 hrs by LC-MS/MS analysis; format: ADME; details: in vivo, po, dose 24.4 µmol/kg
[8] = MRTlast in male Sprague-Dawley rat at 24.4 micromol/kg, IG administered as single dose and measured upto 24 hrs by LC-MS/MS analysis; format: ADME; details: in vivo, po, dose 24.4 µmol/kg
[9] = Initial drug concentration in male Sprague-Dawley rat at 6.1 micromol/kg, iv administered as single dose and measured upto 24 hrs by LC-MS/MS analysis; format: ADME, organism-based; details: in vivo, dose 6.1 µmol/kg
Rattus norvegicus [10] = experiment: Antiseizure activity in PTZ-induced male Sprague-Dawley rat acute seizure model assessed as increase in latency to tonic seizures at 12.2 micromol/kg, po pretreated for 1 hr followed by PTZ addition and measured after 60 mins (reference value: 77 +/- 13.4 sec); format: functional; details: dose 12.2 µmol/kg, time 120 min, 2 h
Rattus norvegicus [11] = experiment: Antiseizure activity in PTZ-induced male Sprague-Dawley rat acute seizure model assessed as increase in latency to tonic seizures at 24.4 micromol/kg, po pretreated for 1 hr followed by PTZ addition and measured after 60 mins (reference value: 77 +/- 13.4 sec); format: functional; details: dose 24.4 µmol/kg, time 120 min, 2 h
[12] = Toxicity in male Sprague-Dawley rat assessed as risk of consciousness loss by measuring time for first loss of righting reflex at 9.8 micromol/kg, ip measured within 4 hrs; format: organism-based; details: in vivo, dose 9.8 µmol/kg
[13] = biological target: GABA-A receptor; alpha-1/beta-2/gamma-2 (Homo sapiens) (UniProt P14867+P47870+P18507); experiment: Positive allosteric modulation of synaptic alpha1beta2gamma2 GABA-A receptor (unknown origin) transfected in LTK cells assessed as potentiation of GABA-induced peak current amplitude by measuring maximal efficacy at 0.01 to 10 uM at -80 mV holding potential preincubated for 30 secs followed by GABA stimulation for 2 secs by Q-patch assay relative to control; format: cell-based; details: filed as positive allosteric modulator, dose 0.01-10 µM, time 32.0 sec
[14] = biological target: Gamma-aminobutyric acid receptor subunit alpha-4/beta3/delta (Homo sapiens, UniProt O14764+P28472+P48169); experiment: Positive allosteric modulation of extrasynaptic alpha4beta3delta GABA-A receptor (unknown origin) transfected in CHO cells assessed as potentiation of GABA-induced peak current amplitude at -80 mV holding potential preincubated for 30 secs followed by GABA stimulation for 2 secs by manual patch assay; format: cell-based
Chain of Gamma-aminobutyric acid receptor subunit alpha-4/beta3/delta (P28472 whole entry): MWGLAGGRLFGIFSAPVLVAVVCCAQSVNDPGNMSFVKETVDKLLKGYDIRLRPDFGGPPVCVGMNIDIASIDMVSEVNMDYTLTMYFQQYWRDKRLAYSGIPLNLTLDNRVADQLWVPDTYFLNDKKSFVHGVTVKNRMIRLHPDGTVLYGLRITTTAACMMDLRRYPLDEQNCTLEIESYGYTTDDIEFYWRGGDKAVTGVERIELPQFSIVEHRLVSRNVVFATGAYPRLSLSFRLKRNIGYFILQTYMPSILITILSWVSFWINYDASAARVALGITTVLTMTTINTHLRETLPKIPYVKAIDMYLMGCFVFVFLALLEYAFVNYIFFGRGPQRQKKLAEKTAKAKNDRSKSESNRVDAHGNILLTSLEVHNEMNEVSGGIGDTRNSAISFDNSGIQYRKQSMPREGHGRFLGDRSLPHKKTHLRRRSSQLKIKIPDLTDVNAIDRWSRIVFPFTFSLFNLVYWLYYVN
Chain of Gamma-aminobutyric acid receptor subunit alpha-4/beta3/delta (P48169 whole entry): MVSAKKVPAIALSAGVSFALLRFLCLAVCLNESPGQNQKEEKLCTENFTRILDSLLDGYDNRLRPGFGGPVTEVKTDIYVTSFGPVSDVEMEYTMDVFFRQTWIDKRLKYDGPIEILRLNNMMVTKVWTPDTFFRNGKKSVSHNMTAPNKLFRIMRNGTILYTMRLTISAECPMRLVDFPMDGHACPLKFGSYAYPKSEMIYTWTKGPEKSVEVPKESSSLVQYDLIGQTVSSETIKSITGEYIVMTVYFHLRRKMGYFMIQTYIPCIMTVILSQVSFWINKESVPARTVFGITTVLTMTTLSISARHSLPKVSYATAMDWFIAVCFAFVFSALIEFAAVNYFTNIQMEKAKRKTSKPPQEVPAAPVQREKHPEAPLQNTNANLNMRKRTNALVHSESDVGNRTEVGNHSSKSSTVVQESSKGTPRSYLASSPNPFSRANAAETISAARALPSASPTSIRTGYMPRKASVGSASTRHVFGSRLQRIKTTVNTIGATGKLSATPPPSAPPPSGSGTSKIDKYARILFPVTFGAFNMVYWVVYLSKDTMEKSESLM
Chain of Gamma-aminobutyric acid receptor subunit alpha-4/beta3/delta (O14764 whole entry): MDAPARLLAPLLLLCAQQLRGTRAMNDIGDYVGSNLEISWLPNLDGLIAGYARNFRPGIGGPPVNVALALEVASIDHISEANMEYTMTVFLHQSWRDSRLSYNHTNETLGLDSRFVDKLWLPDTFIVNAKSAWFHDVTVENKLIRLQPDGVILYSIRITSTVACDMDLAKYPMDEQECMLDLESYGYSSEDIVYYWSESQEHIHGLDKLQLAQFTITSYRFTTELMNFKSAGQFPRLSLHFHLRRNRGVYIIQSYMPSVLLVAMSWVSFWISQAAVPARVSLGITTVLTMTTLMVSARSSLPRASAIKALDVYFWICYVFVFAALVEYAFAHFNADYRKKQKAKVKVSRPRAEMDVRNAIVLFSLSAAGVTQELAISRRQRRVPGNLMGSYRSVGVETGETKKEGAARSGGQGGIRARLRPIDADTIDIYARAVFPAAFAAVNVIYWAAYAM

[15] = Drug concentration in Sprague-Dawley rat brain at 24.4 micromol/kg, IG measured after 2 hrs by LC-MS/MS analysis; format: ADME, tissue-based; details: in vivo, po, dose 24.4 µmol/kg
Rattus norvegicus [16] = experiment: Antiseizure activity in PTZ-induced male Sprague-Dawley rat acute seizure model assessed as increase in latency to tonic seizures at 11.6 micromol/kg, po pretreated for 2 hrs followed by PTZ addition and measured after 60 mins (reference value: 77 +/- 13.4 sec); format: functional; details: dose 11.6 µmol/kg, time 180 min, 3 h
Rattus norvegicus [17] = experiment: Antiseizure activity in PTZ-induced male Sprague-Dawley rat acute seizure model assessed as increase in latency to tonic seizures at 23.2 micromol/kg, po pretreated for 2 hrs followed by PTZ addition and measured after 60 mins (reference value: 77 +/- 13.4 sec); format: functional; details: dose 23.2 µmol/kg, time 180 min, 3 h
[18] = Genotoxicity in Salmonella typhimurium TA97 assessed as induction of reverse mutation in absence of rat liver S9 fraction; format: toxicity; details: salmonella enterica subsp. enterica serovar typhimurium
[19] = Genotoxicity in Salmonella typhimurium TA98 assessed as induction of reverse mutation in presence of rat liver S9 fraction; format: toxicity, subcellular; details: salmonella enterica subsp. enterica serovar typhimurium
[20] = Genotoxicity in Salmonella typhimurium TA100 assessed as induction of reverse mutation in presence of rat liver S9 fraction; format: toxicity, subcellular; details: salmonella enterica subsp. enterica serovar typhimurium
[21] = Genotoxicity in Salmonella typhimurium TA100 assessed as induction of reverse mutation in absence of rat liver S9 fraction; format: toxicity; details: salmonella enterica subsp. enterica serovar typhimurium
[22] = Genotoxicity in Salmonella typhimurium TA102 assessed as induction of reverse mutation in presence of rat liver S9 fraction; format: toxicity, subcellular; details: salmonella enterica subsp. enterica serovar typhimurium
[23] = Genotoxicity in Salmonella typhimurium TA102 assessed as induction of reverse mutation in absence of rat liver S9 fraction; format: toxicity; details: salmonella enterica subsp. enterica serovar typhimurium
[24] = Genotoxicity in Salmonella typhimurium TA1535 assessed as induction of reverse mutation in presence of rat liver S9 fraction; format: toxicity, subcellular; details: salmonella enterica subsp. enterica serovar typhimurium
[25] = Toxicity in male Sprague-Dawley rat assessed as loss of righting reflex at 23.3 micromol/kg, ip measured within 4 hrs; format: organism-based; details: in vivo, dose 23.3 µmol/kg
[26] = Toxicity in male Sprague-Dawley rat assessed as risk of consciousness loss by measuring time for first loss of righting reflex at 36.6 micromol/kg, ip measured within 4 hrs; format: organism-based; details: in vivo, dose 36.6 µmol/kg
[27] = Ratio of Cmax in IG dosed Sprague-Dawley rat brain to plasma; format: ADME, organism-based; details: brain and plasma, po, read-out: BPR

Compound	CLint scaled at 1 µM [1] [mL/min/kg]	remaining at 1 µM [2] [%]	pKa [3]	IC50 (Cytochrome P450 2B6) [µM]	IC50 (Cytochrome P450 2D6) [µM]	IC50 (Cytochrome P450 3A4) [µM]	half-life [4] [h]	AUC(0-t) at 24 h [5] [µM·h]	MRT last at 24 h [6] [h]	Vz [7] [L/kg]	MRT last at 24 h [8] [h]	C0 at 24 h [9] [nM]	Emax [13] [%]	EC50 [14] [µM]	Ct [15] [nmol/kg]	other results
C[C@@]1(O)CC[C@H]2[C@H](CC[C@@H]3[C@@H]2CC[C@]2(C)[C@@H](C(=O)Cn4cc(C#N)cn4)CC[C@@H]32)C1 [ZURANOLONE]	10.6	72	> 12	> 30	> 30	> 30	2.45	5.21	2.12	10.54	4.46	3440	980	0.135	2220	Time (Rattus norvegicus [10]): 1639 s; Time (Rattus norvegicus [11]): 2850 s; Time [12]: 46 min
C[C@@]1(O)CC[C@H]2[C@H](CC[C@@H]3[C@@H]2CC[C@]2(C)[C@@H](C(=O)Cn4cnn(-c5cc(F)nc(F)c5)c4=O)CC[C@@H]32)C1	< 6.75	98	> 12	> 30	> 30	> 30	5.2	6.03	4.75	8.86	7.74	1870	675	0.075	3404	Time (Rattus norvegicus [16]): 2686 s; Time (Rattus norvegicus [17]): 3600 s; Activity [18]: Non-Toxic; Activity [19]: Non-Toxic; Activity [20]: Non-Toxic; Activity [21]: Non-Toxic; Activity [22]: Non-Toxic; Activity [23]: Non-Toxic; Activity [24]: Non-Toxic; Activity [25]: Non-Toxic; Time [26]: 57 min; Kp [27]: 1.5
